Results from patent US20230073512A1, “MODULATORS OF CULLIN 3 ADAPTOR KBTBD4 AS ANTI-CANCER COMPOUNDS” (UNIVERSITE DE MONTREAL, priority 2019, published 2023).
Residues, ends and D or L forms follow the SMILES beside them. *: point of attachment. Cbz = O=C(OCc1ccccc1)*

Key:
[1] = tested on: H3K27Ac and H3K4me2 in OCI-AML5; test: Flow cytometry of H3K27Ac, H3K4me2 and H3; format: cell-based; settings: OCI-AML5, 24 hrs; UM171 250 nM, Panobinostat 5 nM, TCP 10 μM
[2] = tested on: CD201 and CD86 in OCI-AML5; test: FACS analysis of CD201 and CD86; format: cell-based; settings: OCI-AML5, 24 hrs; UM171 250 nM, Panobinostat 5 nM, TCP 10 μM
Method: (§1) Mouse anti-human antibodies were used to detect CD34 (APC or BV421-BD Biosciences), CD45RA (PE-BD Biosciences), CD86 (PerCP-eFluor710-eBioscience), CD90 (PECY7- BioLegend), and CD201 (APC-BioLegend). Flow cytometry acquisitions were performed on a Canto II cytometer (BD Biosciences) and data analysis was performed using FowJo software (Tree Star, Ashland, Oreg., USA) and GraphPad Prism software. Dead cells were excluded using 7AAD staining.

[3] = tested on: CD201 and CD86 in OCI-AML1 cells; test: Flow cytometry of CD201 and CD86 surface expression; format: cell-based; settings: Panobinostat 5 nM, TCP 5 μM
Method: as §1

CD34+ cord blood cells = settings: 7 days culture, UM171 at 5 nM and LSD1 inhibitor (TCP)
Method: as §1

[4] = target: T1, RCOR1, LSD1, HDAC2 in OCI-AML1 cells (Homo sapiens, UniProt O60341+Q92769+Q9UKL0); test: Western Blot of CoREST members; format: cell-based; settings: OCI-AML1, UM171 250 nM plus MG132 10 μM or MLN2494 100 nM
T1 construct: nucleoplasmic proteins extracted from shLuc or shKBTBD4- transduced OCI-AML1 cells; endogenous in cells; host or cells: OCI-AML1 cells transduced with shLuc or shKBTBD4
Method: Representative blots (upper panel) showing KBTBD4, RCOR1, LSD1, HDAC2 and Nucleolin (NCL, loading control) protein levels. Quantification of RCOR1 protein levels were evaluated in 3 independent experiments (lower panel).
Representative blots (upper panel) showing CUL3, RCOR1 and TUBA (loading control) protein levels. Quantification of RCOR1 protein levels were evaluated in 2 independent experiments (lower panel).
(§2) Total protein extraction was performed in lysis buffer (25 mM tris ph7.5, 150 mM NaCl, 1% NP-40, protease inhibitors).

[5] = target: T2, RCOR1, LSD1, HDAC2 in CD34+ derived cord blood cells (Homo sapiens, UniProt O60341+Q92769+Q9UKL0); test: Western Blot of CoREST members in CD34+ cells; format: cell-based; settings: UM171 500 nM / MG132 5 μM, 4 hrs
T2 construct: total proteins extracted from d3 expanded CD34+ derived cord blood cells; endogenous in cells; host or cells: d3 expanded human CD34+ cord blood derived cells (primary)
Method: FIG. 15A illustrate a Western Blot analysis of total proteins extracted from d3 expanded CD34+ derived cord blood cells exposed to DMSO, UM171 (500 nM) or UM171/MG132 (5 μM) for 4 hrs. Representative blot showing KBTBD4, RCOR1, LSD1, HDAC2, CUL3 and TUBA as loading control.
as §2

Compound | H3K27Ac and H3K4me2 marks [1] | CD201 and CD86 expression compared to DMSO [2] | CD86 expression in shKBTBD4 expressing cells [3] | CD34+, CD34+CD201+CD90+ and CD34+CD86+ subsets, combination with UM171 (CD34+ cord blood cells) | UM171-induced loss of RCOR1 under co-treatment [4] | UM171-induced loss of LSD1 and RCOR1 proteins under co-treatment [5]
N[C@@H]1C[C@H]1c1ccccc1 (racemic) [TCP, tranylcypromine] | induces | upregulation | induces | synergistic effect |  | 
CC(C)C[C@@H](C=O)NC(=O)[C@H](CC(C)C)NC(=O)[C@H](CC(C)C)NC(=O)OCc1ccccc1 [MG132] (Cbz-Leu-Leu-Leu-aldehyde) |  |  |  |  | reduced | abolishes the loss
